Measured values: patent US20120115877A1, “Facially Amphiphilic Compounds, Compositions, And Uses Thereof In Treating Cancer” (POLYMEDIX, INC., priority 2010, published 2012)

Tests used:
Assay type in all cases: cell-based, human
Details in all cases: 10 μM
[1] = system: SNB-75; assay: NCI-60 screen, CNS Cancer
Experimental: (§1) Several compounds were tested at single concentrations (10 μM) against 59 different human tumor cell lines, representing leukemia, melanoma and cancers of the lung, colon, brain, ovary, breast, prostate, and kidney (see, Table 3). The human tumor cell lines of the cancer screening panel were grown in RPMI 1640 medium containing 5% fetal bovine serum and 2 mM L-glutamine. For a typical screening experiment, cells were inoculated into 96 well microtiter plates in 100 μL at plating densities ranging from 5,000 to 40,000 cells/well depending on the doubling time of individual cell lines. After cell inoculation, the microtiter plates were incubated at 37° C., 5% CO2, 95% air and 100% relative humidity for 24 hours prior to addition of the compounds.
(§2) After 24 hours, two plates of each cell line were fixed in situ with TCA, to represent a measurement of the cell population for each cell line at the time of drug addition (Tz). Compounds were solubilized in dimethyl sulfoxide at 400-fold the desired final maximum test concentration and stored frozen prior to use. At the time of drug addition, an aliquot of frozen concentrate was thawed and diluted to twice the desired final maximum test concentration with complete medium containing 50 μg/ml gentamicin. Additional four, 10-fold or ½ log serial dilutions were made to provide a total of five compound concentrations plus control. Aliquots of 100 μl of these different drug dilutions were added to the appropriate microtiter wells already containing 100 μl of medium, resulting in the required final compound concentrations.
(§3) Following drug addition, the plates were incubated for an additional 48 hours at 37° C., 5% CO2, 95% air, and 100% relative humidity. For adherent cells, the assay was terminated by the addition of cold TCA. Cells were fixed in situ by the gentle addition of 50 μl of cold 50% (w/v) TCA (final concentration, 10% TCA) and incubated for 60 minutes at 4° C. The supernatant was discarded, and the plates were washed five times with tap water and air dried. Sulforhodamine B (SRB) solution (100 μl) at 0.4% (w/v) in 1% acetic acid was added to each well, and plates were incubated for 10 minutes at room temperature. After staining, unbound dye was removed by washing five times with 1% acetic acid and the plates were air dried. Bound stain was subsequently solubilized with 10 mM trizma base, and the absorbance was read on an automated plate reader at a wavelength of 515 nm. For suspension cells, the methodology was the same except that the assay was terminated by fixing settled cells at the bottom of the wells by gently adding 50 μl of 80% TCA (final concentration, 16% TCA). Using the seven absorbance measurements (time zero, (Tz), control growth, (C), and test growth in the presence of drug at the five concentration levels (Ti)), the percentage growth was calculated at each of the compound concentrations levels. Percentage growth inhibition was calculated as:
(§4) [(Ti−Tz)/(C−Tz)]×100 for concentrations for which Ti>/=Tz
(§5) [(Ti−Tz)/Tz]×100 for concentrations for which Ti<Tz.
(§6) Three dose response parameters were calculated for each compound. Growth inhibition of 50% (GI50) was calculated from [(Ti−Tz)/(C−Tz)]×100=50, which is the compound concentration resulting in a 50% reduction in the net protein increase (as measured by SRB staining) in control cells during the compound incubation. The compound concentration resulting in total growth inhibition (TGI) was calculated from Ti=Tz. The LC50 (concentration of compound resulting in a 50% reduction in the measured protein at the end of the compound treatment as compared to that at the beginning) indicating a net loss of cells following treatment was calculated from [(Ti−Tz)/Tz]×100=−50. Values were calculated for each of these three parameters if the level of activity was reached; however, if the effect was not reached or was exceeded, the value for that parameter was expressed as greater or less than the maximum or minimum concentration tested.

[2] = system: U251; assay: NCI-60 screen, CNS Cancer
Experimental: as §1, §2, §3, §4, §5, §6

[3] = system: SNB-19; assay: NCI-60 screen, CNS Cancer
Experimental: as §1, §2, §3, §4, §5, §6

[4] = system: SF-295; assay: NCI-60 screen, CNS Cancer
Experimental: as §1, §2, §3, §4, §5, §6

[5] = system: SF-268; assay: NCI-60 screen, CNS Cancer
Experimental: as §1, §2, §3, §4, §5, §6

[6] = system: MOLT-4; assay: NCI-60 screen, Leukemia
Experimental: as §1, §2, §3, §4, §5, §6

[7] = system: K-562; assay: NCI-60 screen, Leukemia
Experimental: as §1, §2, §3, §4, §5, §6

[8] = system: HL-60(TB); assay: NCI-60 screen, Leukemia
Experimental: as §1, §2, §3, §4, §5, §6

[9] = system: SR; assay: NCI-60 screen, Leukemia
Experimental: as §1, §2, §3, §4, §5, §6

[10] = system: CCRF-CEM; assay: NCI-60 screen, Leukemia
Experimental: as §1, §2, §3, §4, §5, §6

[11] = system: CAKI-1; assay: NCI-60 screen, Renal Cancer
Experimental: as §1, §2, §3, §4, §5, §6

[12] = system: UO-31; assay: NCI-60 screen, Renal Cancer
Experimental: as §1, §2, §3, §4, §5, §6

[13] = system: SN12C; assay: NCI-60 screen, Renal Cancer
Experimental: as §1, §2, §3, §4, §5, §6

[14] = system: ACHN; assay: NCI-60 screen, Renal Cancer
Experimental: as §1, §2, §3, §4, §5, §6

[15] = system: TK-10; assay: NCI-60 screen, Renal Cancer
Experimental: as §1, §2, §3, §4, §5, §6

[16] = system: A498; assay: NCI-60 screen, Renal Cancer
Experimental: as §1, §2, §3, §4, §5, §6

[17] = system: RXF 393; assay: NCI-60 screen, Renal Cancer
Experimental: as §1, §2, §3, §4, §5, §6

[18] = system: DU-145; assay: NCI-60 screen, Prostate Cancer
Experimental: as §1, §2, §3, §4, §5, §6

[19] = system: PC-3; assay: NCI-60 screen, Prostate Cancer
Experimental: as §1, §2, §3, §4, §5, §6

[20] = system: HCT-15; assay: NCI-60 screen, Colon Cancer
Experimental: as §1, §2, §3, §4, §5, §6

[21] = system: HT29; assay: NCI-60 screen, Colon Cancer
Experimental: as §1, §2, §3, §4, §5, §6

[22] = system: COLO 205; assay: NCI-60 screen, Colon Cancer
Experimental: as §1, §2, §3, §4, §5, §6

[23] = system: HCT-116; assay: NCI-60 screen, Colon Cancer
Experimental: as §1, §2, §3, §4, §5, §6

[24] = system: HCC-2998; assay: NCI-60 screen, Colon Cancer
Experimental: as §1, §2, §3, §4, §5, §6

[25] = system: SW-620; assay: NCI-60 screen, Colon Cancer
Experimental: as §1, §2, §3, §4, §5, §6

[26] = system: KM12; assay: NCI-60 screen, Colon Cancer
Experimental: as §1, §2, §3, §4, §5, §6

[27] = system: SF-539; assay: NCI-60 screen, CNS Cancer
Experimental: as §1, §2, §3, §4, §5, §6

SMILES: NCCc1cc(Br)cc(C#Cc2cccc(C#Cc3cc(Br)cc(CCN)c3)c2)c1 [Compound A]
- Percent Growth [1]: −2.087%
- Percent Growth [2]: −64.65%
- Percent Growth [3]: 27.06%
- Percent Growth [4]: 3.17%
- Percent Growth [5]: 61.55%
- Percent Growth [6]: −43.65%
- Percent Growth [7]: −45.67%
- Percent Growth [8]: 6.88%
- Percent Growth [9]: −43.87%
- Percent Growth [10]: −12.43%
- Percent Growth [11]: 70.66%
- Percent Growth [12]: 37.26%
- Percent Growth [13]: 22.8%
- Percent Growth [14]: −46.91%
- Percent Growth [15]: 8.048%
- Percent Growth [16]: 84.01%
- Percent Growth [17]: −26.13%
- Percent Growth [18]: −83.92%
- Percent Growth [19]: 45.26%
- Percent Growth [20]: 11.61%
- Percent Growth [21]: −89.31%
- Percent Growth [22]: 1.203%
- Percent Growth [23]: −45.86%
- Percent Growth [24]: 54.09%
- Percent Growth [25]: −73.58%
- Percent Growth [26]: −87.53%

SMILES: N=C(N)NCCCCC(=O)Nc1cc(C(F)(F)F)cc(NC(=O)Nc2ccc(NC(=O)Nc3cc(C(F)(F)F)cc(NC(=O)CCCCNC(=N)N)c3OC3CCNC3)cc2)c1OC1CCNC1 (stereo not shown) [Compound B]
- Percent Growth [1]: 19.48%
- Percent Growth [2]: 37.71%
- Percent Growth [3]: 49.16%
- Percent Growth [4]: 38.86%
- Percent Growth [5]: 49.93%
- Percent Growth [27]: 30.8%
- Percent Growth [6]: 63.33%
- Percent Growth [7]: 38.56%
- Percent Growth [8]: 58.59%
- Percent Growth [9]: 77.31%
- Percent Growth [10]: 60.57%
- Percent Growth [11]: 56.42%
- Percent Growth [12]: 45.67%
- Percent Growth [13]: 64.8%
- Percent Growth [14]: 62.45%
- Percent Growth [15]: 60.45%
- Percent Growth [16]: 66.45%
- Percent Growth [17]: 87.84%
- Percent Growth [18]: 70.36%
- Percent Growth [19]: 59.59%
- Percent Growth [20]: 61.39%
- Percent Growth [21]: 59.66%
- Percent Growth [22]: 55.41%
- Percent Growth [23]: 45.1%
- Percent Growth [24]: 75.82%
- Percent Growth [25]: 69.71%
- Percent Growth [26]: 24.16%

SMILES: N=C(N)NCCCCC(=O)Nc1cc(C(F)(F)F)cc(NC(=O)c2cc(C(=O)Nc3cc(C(F)(F)F)cc(NC(=O)CCCCNC(=N)N)c3SCCN)ncn2)c1SCCN [Compound C]
- Percent Growth [1]: 22.47%
- Percent Growth [2]: 31.28%
- Percent Growth [3]: 47.25%
- Percent Growth [4]: 39.81%
- Percent Growth [5]: 53.24%
- Percent Growth [27]: 70.3%
- Percent Growth [6]: 45.62%
- Percent Growth [7]: 4.995%
- Percent Growth [8]: 30.11%
- Percent Growth [9]: 28.12%
- Percent Growth [10]: 24.46%
- Percent Growth [11]: 47.81%
- Percent Growth [12]: 73.64%
- Percent Growth [13]: 65.97%
- Percent Growth [14]: 53.08%
- Percent Growth [15]: 38.3%
- Percent Growth [16]: 69.5%
- Percent Growth [17]: 78.06%
- Percent Growth [18]: 62.89%
- Percent Growth [19]: 77.68%
- Percent Growth [20]: 33.27%
- Percent Growth [21]: 17.03%
- Percent Growth [22]: −73.2%
- Percent Growth [23]: 37.88%
- Percent Growth [24]: 54.2%
- Percent Growth [25]: 34.39%
- Percent Growth [26]: −39.48%

SMILES: NCCCc1cccc(-c2ccc3oc4ccc(-c5cccc(CCCN)c5)cc4c3c2)c1 [Compound G]
- Percent Growth [1]: 66.47%
- Percent Growth [3]: 88.57%
- Percent Growth [4]: 65.4%
- Percent Growth [5]: 75.18%
- Percent Growth [27]: 86.73%
- Percent Growth [6]: −6.401%
- Percent Growth [7]: 2.899%
- Percent Growth [8]: 46.37%
- Percent Growth [9]: −19.6%
- Percent Growth [10]: 9.165%
- Percent Growth [11]: 56.68%
- Percent Growth [12]: 84.95%
- Percent Growth [13]: 82.22%
- Percent Growth [14]: 36.71%
- Percent Growth [15]: 57.59%
- Percent Growth [16]: 92.26%
- Percent Growth [17]: 65.05%
- Percent Growth [18]: −23.65%
- Percent Growth [19]: 54.99%
- Percent Growth [20]: 49.71%
- Percent Growth [21]: −51.14%
- Percent Growth [22]: 26.37%
- Percent Growth [23]: −37.99%
- Percent Growth [24]: 81.22%
- Percent Growth [25]: −7.997%
- Percent Growth [26]: 14.01%
